Patent publication US11008340B2, “Modulators of ROR-gamma” (Vitae Pharmaceuticals, LLC, priority 2015, dated 2021)
Read-outs that look alike come from different tables or passages of the source.

How the values were obtained:
[1] = target: T1, recombinant RORγ Ligand Binding Domain (LBD) protein (Homo sapiens, UniProt P51449); test: Radio-Ligand RORγ Binding Assay (Assay 1); conditions: radio-ligand competition, RORγ LBD, read-out: Avg ROR Bind Ki
T1 construct: 6×His; GST
T1 sequence (P51449 269-508 limits assumed): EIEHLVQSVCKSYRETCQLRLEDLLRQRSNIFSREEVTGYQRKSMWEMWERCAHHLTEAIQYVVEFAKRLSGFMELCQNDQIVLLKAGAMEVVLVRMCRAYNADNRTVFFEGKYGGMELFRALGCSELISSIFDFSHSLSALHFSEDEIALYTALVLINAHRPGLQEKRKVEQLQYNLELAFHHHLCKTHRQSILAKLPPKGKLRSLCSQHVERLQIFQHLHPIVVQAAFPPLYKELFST
In short: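 Cell-free SPA competition between compound and 25-hydroxy[26,27-^3H]-cholesterol for 6×His-GST-tagged RORγ LBD in 50 mM HEPES pH 7.4 with NaCl, MgCl2, glycerol, CHAPS, octylglucoside and DTT. Mix was shaken 20 min, held 10 min at rt, then read after poly-Lys YSi beads. IC50 came from a four-parameter fit, and Ki from radioligand KD.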

[2] = target: T2, full-length RORγt in Jurkat cells (Homo sapiens, UniProt P51449); test: RORγt 5×RORE Assay in Jurkat Cells (Assay 2); assay type: cell-based; conditions: 5×RORE luciferase reporter
T2 construct: transcriptional activity of the full-length RORγt in Jurkat cells; host or cells: Jurkat cells (ATCC TIB-152)
T2 sequence (P51449 1-497 isoform P51449-2): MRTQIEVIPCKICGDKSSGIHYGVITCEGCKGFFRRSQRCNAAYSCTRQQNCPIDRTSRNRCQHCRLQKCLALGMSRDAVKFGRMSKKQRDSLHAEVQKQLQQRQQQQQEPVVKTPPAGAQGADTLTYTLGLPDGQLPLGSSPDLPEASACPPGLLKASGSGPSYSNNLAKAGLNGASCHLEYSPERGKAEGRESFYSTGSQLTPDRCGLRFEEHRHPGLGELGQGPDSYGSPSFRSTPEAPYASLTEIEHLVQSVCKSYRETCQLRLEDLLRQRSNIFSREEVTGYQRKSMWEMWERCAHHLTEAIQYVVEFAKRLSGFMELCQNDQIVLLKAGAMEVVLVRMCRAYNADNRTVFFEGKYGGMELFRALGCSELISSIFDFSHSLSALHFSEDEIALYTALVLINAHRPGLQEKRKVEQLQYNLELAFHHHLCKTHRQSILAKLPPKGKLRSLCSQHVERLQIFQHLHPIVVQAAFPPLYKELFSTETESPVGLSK
Method: [formula] RORγt 5×RORE Assay in Jurkat Cells (Assay 2)
Compounds described herein were tested for RORγ inverse agonist activity in a cell-based, transcriptional activity assay. Secreted Nanoluc″ luciferase was used as a reporter for transcriptional activity of the full-length RORγt in Jurkat cells (ATCC, Cat. #TIB-152). A reporter plasmid was constructed by inserting 5 repeats of the ROR Response Element (RORE) […] (SEQ ID NO: 1) into a commercially available promoterless plasmid pNL1.3[secNluc] (Promega, Cat. #N1021) using KpnI and HindIII restriction sites. The expression plasmid for RORγt was purchased (Geneocopoeia, Cat. #EX-T6988-M02). Jurkat cells (30 million cells) were transfected with 11 μg of EX-T6988-MO2 and 26 μg of the reporter plasmid in OptiMEM® media using Lipofectamine LTX and Plus™ reagents (Life Technologies, Cat. #15338-100). After 5-6 hrs of incubation at 37° C./5% CO2, the cells were collected, resuspended in phenol-red free RPMI media containing 10% (v/v) delipidated FBS (Hyclone, Cat. #SH30855.03) and dispensed into 96-well clear bottom tissue culture plates (CoStar, Cat. #3603), at 80,000 cells per well. Tested compounds were added to the cells in the same media (final concentration of DMSO was 0.1% (v/v)), and the plates were incubated at 37° C./5% CO2 for 16-18 hrs. Luciferase activity in the conditioned supernatants was determined with NanoGlo® assay reagents (Promega, Cat. #N1130).

[3] = 25-hydroxy [26,27-3H]-cholesterol
[4] = Table 20, read-out: Avg ROR γt/5x IC5

Compound | Ki [1, 3] [nM] | IC50 [2, 4] [nM] | IC50 ([2]; read-out: Avg ROR γt/5x IC50) [nM] | Ki ([1]; head without unit (Tables 15, 17)) [nM] | IC50 ([2]; head without unit (Tables 15, 17), read-out: Avg ROR γt/5x IC50) [nM]
CC[C@H]1CN(c2ccc(C(F)(F)F)cc2)Cc2cc(C(=O)NCc3ccc(S(=O)(=O)CC)cc3)ccc21 (single isomer, unassigned) [Hy7-7.2] | < 100 | 100 to 1000 | – | – | –
CCS(=O)(=O)c1ccc([C@H](CO)NC(=O)c2ccc3c(C4CC4)n(Cc4ccc(C(F)(F)F)cc4)nc3c2)cc1 [Hy3A-4, (R)-3-cyclopropyl-N-(1-(4-(ethylsulfonyl)phenyl)-2-hydroxyethyl)-2-(4-(trifluoromethyl)benzyl)-2H-indazole-6-carboxamide] | < 100 | – | < 100 | – | –
CCS(=O)(=O)c1ccc([C@@H](CO)NC(=O)c2ccc3c(OC[C@H]4CC[C@H](C(F)(F)F)CC4)nc(C)cc3c2)cc1 [Hy1A-16, N-((S)-1-(4-(ethylsulfonyl)phenyl)-2-hydroxyethyl)-3-methyl-1-(((1r,4S)-4-(trifluoromethyl)cyclohexyl)methoxy)isoquinoline-6-carboxamide] | < 100 | – | < 100 | – | –
CC[C@@H]1CN(c2ncc(C3CC3)cn2)Cc2cc(C(=O)N[C@@H](CO)c3ccc(S(=O)(=O)CC)cc3)ccc21 (single isomer, unassigned) [Hy7-11.1] | < 100 | 100 to 1000 | – | – | –
CCOC(=O)c1cnc(N2Cc3cc(C(=O)NCc4ccc(S(=O)(=O)CC)cc4)ccc3[C@@H](C(C)C)C2)nc1C(F)(F)F (single isomer, unassigned) [Hy7-26.2] | < 100 | 100 to 1000 | – | – | –
CCS(=O)(=O)c1ccc(CNC(=O)c2ccc3c(c2)CN(c2nccc(C(F)(F)F)n2)C[C@H]3C(C)C)cc1 (single isomer, unassigned) [Hy7-14.1] | < 100 | > 1000 | – | – | –
CC[C@H]1CN(c2ncc(Cl)cn2)Cc2cc(C(=O)N[C@@H](CO)c3ccc(S(=O)(=O)CC)cc3)ccc21 (single isomer, unassigned) [Hy7-6.2] | < 100 | > 1000 | – | – | –
CCS(=O)(=O)c1ccc([C@H](CO)NC(=O)c2ccc3c(COc4ccc(C(F)(F)F)cc4)nccc3c2)cc1 [Hy1A-24, (R)-N-(1-(4-(ethylsulfonyl)phenyl)-2-hydroxyethyl)-1-((4-(trifluoromethyl)phenoxy)methyl)isoquinoline-6-carboxamide] | < 100 | – | 100 to 1000 | – | –
CCS(=O)(=O)c1ccc(CNC(=O)c2ccc3c(C4CC4)n(C[C@H]4CC[C@H](C(F)(F)F)CC4)nc3c2)nc1 [Hy3A-3, 3-cyclopropyl-N-((5-(ethylsulfonyl)pyridin-2-yl)methyl)-2-(((1r,4r)-4-(trifluoromethyl)cyclohexyl)methyl)-2H-indazole-6-carboxamide] | < 100 | – | < 100 | – | –
CCS(=O)(=O)c1ccc(CNC(=O)c2ccc3c(OC[C@H]4CC[C@H](C(F)(F)F)CC4)nc(Cl)cc3c2)cc1 [Hy1A-9, 3-chloro-N-(4-(ethylsulfonyl)benzyl)-1-(((1r,4r)-4-(trifluoromethyl)cyclohexyl)methoxy)isoquinoline-6-carboxamide] | < 100 | – | < 100 | – | –
CC[C@@H]1CN(c2ccc(C(F)(F)F)cn2)Cc2cc(C(=O)NCc3ccc(S(=O)(=O)CC)cc3)ccc21 (single isomer, unassigned) [Hy7-8.1] | < 100 | < 100 | – | – | –
CC[C@@H]1CN(C2CCC(F)(F)CC2)Cc2cc(C(=O)N[C@@H](CO)c3ccc(S(=O)(=O)CC)cc3)ccc21 (single isomer, unassigned) [Hy7-32.1] | < 100 | > 1000 | – | – | –
CCS(=O)(=O)c1ccc(CNC(=O)c2ccc3c(c2)CCN(Cc2ccc(Cl)cc2)[C@H]3C(C)C)cc1 (single isomer, unassigned) [Hy2A-20.1] | < 100 | – | < 100 | – | –
CCc1cc2cc(C(=O)NCc3ccc(S(=O)(=O)CC)cc3)ccc2c(OC[C@H]2CC[C@H](C(F)(F)F)CC2)n1 [Hy1A-20, 3-ethyl-N-(4-(ethylsulfonyl)benzyl)-1-(((1r,4r)-4-(trifluoromethyl)cyclohexyl)methoxy)isoquinoline-6-carboxamide] | < 100 | – | < 100 | – | –
CCS(=O)(=O)c1ccc([C@@H](CO)NC(=O)c2ccc3c(OC[C@H]4CC[C@H](C(F)(F)F)CC4)nc(C)cc3c2)nc1 (single isomer, unassigned) [Hy1A-22.2] | < 100 | – | 100 to 1000 | – | –
CCS(=O)(=O)c1ccc(CNC(=O)c2ccc3c(c2)CN(Cc2ccc(C#N)cc2)C[C@H]3C(C)C)cc1 (single isomer, unassigned) [Hy7-28.1] | < 100 | 100 to 1000 | – | – | –
CCS(=O)(=O)c1ccc(CNC(=O)c2cnc3c(c2)CCN(Cc2ccc(F)cc2)C3C(C)C)cc1 (single isomer, unassigned) [Hy2B-6.1] | – | – | – | < 100 | > 1000
CC[C@H]1CN(c2ncc(C(F)(F)F)cc2C)Cc2cc(C(=O)NCc3ccc(S(=O)(=O)CC)cc3)ccc21 (single isomer, unassigned) [Hy7-13.2] | < 100 | 100 to 1000 | – | – | –
CCS(=O)(=O)c1ccc([C@H](CO)NC(=O)c2ccc3c(OCC4CC(F)(F)C4)nc(C)cc3c2)cc1 [Hy1A-12, (R)-1-((3,3-difluorocyclobutyl)methoxy)-N-(1-(4-(ethylsulfonyl)phenyl)-2-hydroxyethyl)-3-methylisoquinoline-6-carboxamide] | < 100 | – | > 1000 | – | –
CCC1CN(c2ncc(C(F)(F)F)cn2)Cc2cc(C(=O)N[C@@H](CO)c3ccc(S(=O)(=O)CC)cc3)ccc21 (single isomer, unassigned) [Hy7-17.2] | < 100 | > 1000 | – | – | –
CCS(=O)(=O)c1ccc(CNC(=O)c2ccc3c(c2)CN(c2ncc(-c4ccnc(OC)c4)cn2)C[C@H]3C(C)C)cc1 (single isomer, unassigned) [Hy7-23.1] | < 100 | < 100 | – | – | –
CCS(=O)(=O)c1ccc([C@H](CO)NC(=O)c2sc3nc(C)nc(OC[C@H]4CC[C@H](C(F)(F)F)CC4)c3c2C)cc1 [Hy6-4, N-((R)-1-(4-(ethylsulfonyl)phenyl)-2-hydroxyethyl)-2,5-dimethyl-4-(((1r,4R)-4-(trifluoromethyl)cyclohexyl)methoxy)thieno[2,3-d]pyrimidine-6-carboxamide] | < 100 | – | < 100 | – | –
CCS(=O)(=O)c1ccc(CNC(=O)c2ccc3c(c2)CCN(Cc2ccc(C#N)cc2)[C@H]3C(C)C)cc1 (single isomer, unassigned) [Hy2A-15.1] | < 100 | – | < 100 | – | –
CCS(=O)(=O)c1ccc([C@H](CO)NC(=O)c2ccc3c(OC[C@@H]4CC[C@@H](C(F)(F)F)OC4)nc(C)cc3c2)cc1 (single isomer, unassigned) [Hy1A-18.2] | < 100 | – | < 100 | – | –
CCS(=O)(=O)c1ccc(CNC(=O)c2ccc3c(c2)CN(c2ncc(C(F)(F)F)cn2)C[C@H]3C(C)C)cc1 (single isomer, unassigned) [Hy7-15.1] | < 100 | 100 to 1000 | – | – | –
CCS(=O)(=O)c1ccc(CNC(=O)c2ccc3c(c2)CN(c2ncc(C#N)cn2)C[C@H]3C(C)C)cc1 (single isomer, unassigned) [Hy7-2.1] | < 100 | 100 to 1000 | – | – | –
CCS(=O)(=O)c1ccc(CNC(=O)c2sc3nc(C)nc(OC[C@H]4CC[C@H](C(F)(F)F)CC4)c3c2C)cc1 [Hy6-2, N-(4-(ethylsulfonyl)benzyl)-2,5-dimethyl-4-(((1r,4r)-4-(trifluoromethyl)cyclohexyl)methoxy)thieno[2,3-d]pyrimidine-6-carboxamide] | < 100 | – | 100 to 1000 | – | –
